In ChEMBL document CHEMBL1221377, “SAR development of a series of 8-azabicyclo[3.2.1]octan-3-yloxy-benzamides as kappa opioid receptor antagonists. Part 2” (Bioorg Med Chem Lett, 2010):

How the values were obtained:
[1] = Ratio of drug level brain to plasma in Sprague-Dawley rat at 5 umol/kg, iv; format: ADME; conditions: brain and plasma, read-out: BPR
[2] = Apparent permeability from apical to basolateral side of MDCK cells expressing MDR1; format: ADME, cell-based, Canis lupus familiaris; conditions: dog
[3] = Intrinsic clearance in human liver microsomes; format: ADME, Microsome
[4] = Intrinsic clearance in rat liver microsomes; format: ADME, Microsome
[5] = system: Rattus norvegicus; test: Clearance in Sprague-Dawley rat plasma at 2 umol/kg, iv; format: ADME, organism-based; conditions: in vivo
[6] = Half life in Sprague-Dawley rat at 2 umol/kg, iv; format: ADME, organism-based; conditions: in vivo
[7] = Volume of distribution at steady state in Sprague-Dawley rat at 2 umol/kg, iv; format: ADME, organism-based; conditions: in vivo, read-out: Vdss
[8] = Ratio of drug level brain to plasma in Sprague-Dawley rat at 2 umol/kg, iv; format: ADME; conditions: brain and plasma, read-out: BPR
[9] = Oral bioavailability in Sprague-Dawley rat at 2 umol/kg; format: ADME, organism-based; conditions: in vivo

SMILES: CN(C)C(=O)N[C@H]1CC[C@@H](CCN2[C@@H]3CC[C@H]2C[C@@H](Oc2cccc(C(N)=O)c2)C3)CC1
- Kp [1]: 0.22
- Papp A→B [2]: 1.9 ×10⁻⁶ cm/s
- microsomal CLint [3]: < 4 µL/min/mg
- microsomal CLint [4]: 30 µL/min/mg

SMILES: NC(=O)c1cccc(C[C@H]2C[C@H]3CC[C@@H](C2)N3Cc2ccccc2)c1
- CL [5]: 124 µL/min/mg
- Papp A→B [2]: 14 ×10⁻⁶ cm/s
- microsomal CLint [3]: < 4 µL/min/mg
- microsomal CLint [4]: 65 µL/min/mg
- half-life [6]: 1.3 h
- Vd [7]: 6.6 L/kg
- Kp [8]: 1.9
- bioavailability [9]: 5%
